Consider five molecules from article PMC9229563, “Pharmacokinetics and the Dermal Absorption of Bromochlorophene, a Cosmetic Preservative Ingredient, in Rats” (Toxics, 2022).

Where two headings read alike, the source gives them in different places.

On the set-up of series [1]: method as in Table S1. The conditions noted are these: ref Table S1; cited from earlier work.
The subject of another series is glucocorticoid receptor. Details: method as in PMID 33064576. The conditions noted are these: in silico and in vitro studies; cited from earlier work.
Series [2] can be described thus: Stability of BCP in receptor fluid (6% POE20). In kind it is physicochemical. The conditions noted are these: 0.5 mg/mL, 48 h, 32 °C, sink conditions, n = 3.
Protocol: The in vitro dermal absorption study followed the guidelines of the Korea Ministry of Food and Drug Safety [15] with a Franz diffusion cell system consisting of a vision Microette auto-sampler, stirring drive, circulating water bath, stirring control, and autofill (Hanson, Chatsworth, CA, USA). The volume of the receptor fluid chamber was 12 mL and the temperature of the receptor fluid was maintained in a circulating water bath at 32 °C. […] The skin, after hydrating with normal saline for 5 min, was then placed between the donor and receptor compartments of the diffusion cells. […] Each formulation (~200 mg) was applied to 1.77 cm^2 of the donor chamber.
A further series concerns androgen receptor. Also noted: method as in PMID 33064576. Conditions: in silico and in vitro studies; cited from earlier work.
On the set-up of series [3]: method as in PMID 34335256. Conditions: female rats, oral, 28 days, 500 and 1000 mg/kg; cited from earlier work.
On the set-up of series [4]: method as in PMID 34335256. Conditions: hydrogel formulation, 0.262 mg/kg rat dorsal application; cited from earlier work.
Series [5] is described as follows: Intravenous pharmacokinetics in rats. In kind it is in vivo. The conditions noted are these: rat; for half-life / AUC / AUC(0-inf) / clearance / Cmax / Vd: plasma, iv, n = 3; for half-life: glycerol formal, read-out: T1/2, terminal elimination half-life (converted); for clearance: read-out: CL, systemic clearance (converted); for Cmax: read-out: Cmax, peak plasma concentration; for Vd: read-out: Vd, volume of distribution. The procedure: Blood samples (>0.2 mL) for plasma were collected by cannulated right jugular vein at 1, 2, 5, 10, and 30 min, and 1, 2, 4, 6, 12, 24, 36, and 48 h post-dose. Plasma samples were harvested by centrifugation at 13,000 rpm for 10 min and stored at −20 °C until analysis.
To analyze the in vivo (dermal and i.v. application) samples, 50 µL of the plasma was used, and extraction and analysis methods were the same as in vitro samples.
In the in vivo study, the terminal elimination half-life (T1/2) was calculated to be 0.693/λz. The slope of the last phase (λz) is the individual estimate of the terminal elimination rate constant, which is calculated using log-linear regression of the terminal portions of the plasma concentration–time curves. The area under the plasma concentration–time curve from time zero to the last observation time point (AUCall) was calculated using the trapezoidal rule, and the AUC to infinity time (AUCinf) was obtained by adding Cn/λz to the AUCall (Cn: last concentration of chemical). Systemic clearance (CL) was calculated as dose/AUC. The apparent volume of the distribution (Vd) during the terminal phase was calculated as CL/λz. The peak plasma concentration (Cmax) and time to reach Cmax (Tmax) were determined directly from these observations. The relative bioavailability (F) after dermal application was calculated as F (%) = 100 (Doseiv·AUCdermal)/(Dosedermal·AUCiv).
The plasma concentration–time data were analyzed using a non-compartmental WinNonlin model (version 2.1, Pharsight, NC, USA) to acquire i.v. and dermal pharmacokinetic parameters.

Series [6] is described as follows: Dermal pharmacokinetics / in vivo dermal absorption in rats. Also noted: species or system rat. On the procedure: Blood samples (approximately 0.2 mL) were taken periodically by cannulated right jugular vein at 15 and 30 min, and 1, 2, 4, 8, 12, 24, 36, and 48 h post-dose. […] To analyze the in vivo (dermal and i.v. application) samples, 50 µL of the plasma was used, and extraction and analysis methods were the same as in vitro samples. […] The slope of the last phase (λz) is the individual estimate of the terminal elimination rate constant, which is calculated using log-linear regression of the terminal portions of the plasma concentration–time curves. The area under the plasma concentration–time curve from time zero to the last observation time point (AUCall) was calculated using the trapezoidal rule, and the AUC to infinity time (AUCinf) was obtained by adding Cn/λz to the AUCall (Cn: last concentration of chemical). Systemic clearance (CL) was calculated as dose/AUC. The apparent volume of the distribution (Vd) during the terminal phase was calculated as CL/λz. The peak plasma concentration (Cmax) and time to reach Cmax (Tmax) were determined directly from these observations. […] The plasma concentration–time data were analyzed using a non-compartmental WinNonlin model (version 2.1, Pharsight, NC, USA) to acquire i.v. and dermal pharmacokinetic parameters.

The subject of a further series is thyroid receptor α. Also noted: method as in PMID 33064576. The conditions noted are these: in silico and in vitro studies; cited from earlier work.
In a further series the test system is yeasts / moulds. Also noted: method as in Table S1. Conditions: ref Table S1; cited from earlier work.
The subject of another series is gram-positive bacteria. Also noted: method as in Table S1. Conditions: ref Table S1; cited from earlier work.
For another series, the system named is thyroid receptor β. Also noted: method as in PMID 33064576. Conditions: in silico and in vitro studies; cited from earlier work.
A further series relates to gram-negative bacteria. Also noted: method as in Table S1. The conditions noted are these: ref Table S1; cited from earlier work.
The conditions of series [7]: cited from earlier work.
A further series deals with estrogen receptor α. Details: method as in PMID 33064576. Conditions: in silico and in vitro studies; cited from earlier work.

In general, AUC refers to concentration integrated over time. Higher therefore signals more exposure. What is called AUC(0-inf) is the area under the concentration-time curve extrapolated to infinity. A higher AUC(0-inf) goes with more exposure. Usually clearance stands for the volume of plasma or blood freed of the substance per unit of time. The term Vd denotes the apparent volume that relates the amount in the body to the concentration in plasma or blood. In general, bioavailability refers to the share of a dose that reaches the circulation, judged against a reference dose that is usually intravenous. With `Oc1c(Br)cc(Cl)cc1Cc1cc(Cl)cc(Br)c1O` [BCP, 2,2'-Methylenbis (6-bromo-4-chlorophenol)], the Solubility in water in series [1] was under 5 µg/mL. In addition, in the series on glucocorticoid receptor, the “Action on glucocorticoid receptor” value is recorded as “antagonist”. Further, the “Stability in 6% POE20” value in series [2] is recorded as “stable”. For the same molecule, the “Action on androgen receptor” value with androgen receptor is listed as “antagonist”. Also, the “Hematological and histopathological characteristics” value in [3] was “altered”. Further, the BCP absorption in series [4] was 29.25 ± 6.09%. Moreover, in series [5] (i.v. 0.2 mg/kg), the half-life is 34.5 ± 5.87 h, the exposure (AUC) amounted to 4190 ± 320 ng·h/mL, the AUC(0-inf) was 5860 ± 767 ng·h/mL and the clearance was 0.576 mL/min/kg. Moreover, in series [5] (i.v. 0.2 mg/kg), the Cmax was found to be 4190 ± 1690 ng/mL and the Vd is 1.74 ± 0.072 L/kg. Besides, in series [5] (i.v. 1 mg/kg), the half-life is 30.5 ± 1.83 h, the AUC is 30500 ng·h/mL, the AUC(0-inf) was determined as 41600 ng·h/mL and the clearance is 0.401 mL/min/kg. For the same molecule, in [5] (i.v. 1 mg/kg), the Cmax is 11400 ng/mL and the Vd is 1.06 ± 0.0502 L/kg. In addition, in series [5] (i.v.), the “AUCs (AUCall and AUCinf) in plasma at 1 mg/kg versus 0.2 mg/kg” value is on record as “approximately 7 fold”. In series [6] (determined from the in vivo PK / dermal study in rats), the “Representative (total) dermal absorption of BCP” value turned out to be 12.20 ± 2.63%. Further, the bioavailability in series [6] (rat, plasma, topical, 234 mg/kg formulation, read-out: F, dermal bioavailability) came out at 12.2 ± 2.63%. Further, in the series with thyroid receptor α, the “Action on thyroid receptor α” value is on record as “antagonist”. Further, the “Effect of preservative, yeasts / moulds” value in the series on yeasts / moulds is given as “inadequate”. In addition, in the series on gram-positive bacteria, the “Effect of preservative, gram-positive bacteria” value was “good”. Besides, the “Action on thyroid receptor β” value in the series with thyroid receptor β is recorded as “antagonist”. Also, the “Effect of preservative, gram-negative bacteria” value in the series on gram-negative bacteria was “moderate”. In series [7] (ref Table S1), the LogPow is listed as 6.12. In addition, in the series on estrogen receptor α, the “Action on estrogen receptor α” value was “antagonist”.

On to `COc1ccc(C(=O)c2ccccc2)c(O)c1` [benzophenone-3], for which the LogPow in series [7] is 3.58.

For `CCCCC(CC)COC(=O)C=Cc1ccc(OC)cc1` (centres unmarked) [ethylhexyl methoxycinnamate], the LogPow in series [7] is recorded as 5.96.

Turning to `CC1CC(OC(=O)c2ccccc2O)CC(C)(C)C1` (centres unmarked) [homosalate], the LogPow in [7] was 5.94.

Take `C[C@]12CC[C@H]3[C@@H](CCC4=CC(=O)CC[C@@]43C)[C@@H]1CC[C@@H]2O` [testosterone, reference compound]: the LogPow in series [7] was 3.3.
